Patent publication US12303845B2, “Method for crystallization of active pharmaceutical ingredients” (Nanoform Finland Oyj, priority 2023, dated 2025)

Key:
Type in all cases: physicochemical
[1] = SEM of crystallized suspensions and dried products (crystal size grade, particle size); set-up: key: 5 = nanocrystals; 1 = large crystals
Protocol: SEM images were captured using the Zeiss Sigma 300 VP SEM instruments. Samples were dispersed into water and filtered with 0.1 μm filter. Filters were dried, transferred to SEM sample holders, and coated with a 5 nm thick layer of platinum. Amorphous API nanoparticles (budesonide, ezetimibe, ceritinib, and apalutamide) were added as dry powders to aqueous polymer solutions. The mixtures were either • (i) mixed with a magnetic stirrer and ultrasonicated until API was completely surrounded by water (wetted). The stirring was continued for 16-24 h at ambient temperature or • (ii) blended with a metal spatula and allowed to stay at room temperature for 18-24 h. The suspensions formed were analyzed after 18-24 h. SEM and XRD samples were prepared as described above. Suspension comprising nanosized APIs prepared as shown above were dried in a vacuum desiccator overnight. The solid materials were grounded to produce powders. The powders were analyzed on XRD and SEM. The powders comprising nanosized APIs were used in the stability, permeability, and dissolution tests as described above.

[2] = Stability tests of solid material (SEM, XRD, HPLC)
Protocol: Solid material was weighted in separate vials (approx. 150 mg of material in each) and transferred to stability chambers. Three conditions were applied: ambient conditions (material in closed vial at RT), 25° C./65% RH and 40° C./75% RH. Material was analyzed at T0 as freshly prepared, T7 ([…]), T14 ([…]) and T30 (30 d) after the initiation of stability studies. SEM, XRD and dissolution/permeability studies were used to evaluate the crystallinity, particle size/morphology and performance of the material.

[3] = Crystallization of amorphous nanosized API in aqueous polymer solution, polymorph/crystallinity by XRD; set-up: key to Polymorph: bulk = same as the API before conversion to amorphous nanoparticles
Protocol: XRPD measurements were carried out using the Malvern PANalytical Empyrean X-ray diffractometer equipped with a Cu Kα (1.54 Å) source, MultiCore optics and a solid-state PIXcel3D detector. By using Kapton tape the samples were attached onto aluminum or polycrystalline silicon sample holders. Dried slurries were measured without further sample preparation under Kapton tape and suspensions were filtered, dried, and filters were attached with double sided tape. The samples were measured in the reflection geometry in a spinning measurement stage. The measurement range was 5-40 (°2θ). The step size and time per step values were varied depending on the counts per second obtained.
Determination of crystallization of API nanoparticles was evaluated via kinetic study of suspension. Accordingly, XRD measurement was done for suspension in different time points.
Amorphous API nanoparticles (budesonide, ezetimibe, ceritinib, and apalutamide) were added as dry powders to aqueous polymer solutions. The mixtures were either • (i) mixed with a magnetic stirrer and ultrasonicated until API was completely surrounded by water (wetted). The stirring was continued for 16-24 h at ambient temperature or • (ii) blended with a metal spatula and allowed to stay at room temperature for 18-24 h.
The suspensions formed were analyzed after 18-24 h. SEM and XRD samples were prepared as described above.

[4] = HPMC 1 wt.-%, SLS 0.2 wt.-%, mAPI 25 mg/g
[5] = HPMC 1 wt.-%, no SLS, mAPI 25 mg/g
[6] = HPMC 2.5 wt.-%, SLS 0.2 wt.-%, mAPI 25 mg/g
[7] = HPMC 2.5 wt.-%, no SLS, mAPI 25 mg/g
[8] = HPMC 5 wt.-%, SLS 0.2 wt.-%, mAPI 25 mg/g
[9] = HPMC 5 wt.-%, SLS 0.2 wt.-%, mAPI 100 mg/g
[10] = HPMC 5 wt.-%, SLS 0.2 wt.-%, mAPI 150 mg/g
[11] = HPMC 5 wt.-%, no SLS, mAPI 25 mg/g
[12] = HPMC 5 wt.-%, no SLS, mAPI 100 mg/g
[13] = HPMC 5 wt.-%, no SLS, mAPI 150 mg/g
[14] = PVP K30 1 wt.-%, no SLS, mAPI 25 mg/g
[15] = PVP K30 2.5 wt.-%, no SLS, mAPI 25 mg/g
[16] = PVP K30 5 wt.-%, no SLS, mAPI 25 mg/g
[17] = PVPVA 1 wt.-%, SLS 0.2 wt.-%, mAPI 25 mg/g
[18] = PVPVA 1 wt.-%, no SLS, mAPI 25 mg/g polymer solution
[19] = PVPVA 2.5 wt.-%, SLS 0.2 wt.-%, mAPI 25 mg/g
[20] = PVPVA 2.5 wt.-%, no SLS, mAPI 25 mg/g
[21] = PVPVA 5 wt.-%, SLS 0.2 wt.-%, mAPI 25 mg/g
[22] = PVPVA 5 wt.-%, no SLS, mAPI 25 mg/g
[23] = PVPVA 15 wt.-%, SLS 0.2 wt.-%, mAPI 150 mg/g
[24] = PVPVA 15 wt.-%, no SLS, mAPI 150 mg/g
[25] = PVPVA 20 wt.-%, no SLS, mAPI 200 mg/g
[26] = PVPVA 25 wt.-%, SLS 0.2 wt.-%, mAPI 250 mg/g
[27] = PVPVA 25 wt.-%, no SLS, mAPI 250 mg/g
[28] = PVPVA 45 wt.-%, no SLS, mAPI 450 mg/g
[29] = Poloxamer 407 1 wt.-%, no SLS, mAPI 25 mg/g
[30] = Poloxamer 407 2.5 wt.-%, no SLS, mAPI 25 mg/g
[31] = Poloxamer 407 5 wt.-%, no SLS, mAPI 25 mg/g
[32] = Poloxamer 407 1 wt.-%, SLS 0.2 wt.-%, mAPI 25 mg/g
[33] = Poloxamer 407 2.5 wt.-%, SLS 0.2 wt.-%, mAPI 25 mg/g
[34] = Poloxamer 407 5 wt.-%, SLS 0.2 wt.-%, mAPI 25 mg/g
[35] = Poloxamer 407 5 wt.-%, no SLS, mAPI 150 mg/g
[36] = Poloxamer 407 7.5 wt.-%, no SLS, mAPI 150 mg/g
[37] = Poloxamer 407 7.5 wt.-%, no SLS, mAPI 300 mg/g
[38] = Poloxamer 407 10 wt.-%, SLS 0.2 wt.-%, mAPI 25 mg/g
[39] = Poloxamer 407 10 wt.-%, no SLS, mAPI 25 mg/g
[40] = Poloxamer 407 15 wt.-%, SLS 0.2 wt.-%, mAPI 150 mg/g
[41] = Poloxamer 407 15 wt.-%, SLS 0.2 wt.-%, mAPI 300 mg/g
[42] = Poloxamer 407 15 wt.-%, no SLS, mAPI 150 mg/g
[43] = Poloxamer 407 15 wt.-%, no SLS, mAPI 300 mg/g
[44] = Poloxamer 407 15 wt.-%, no SLS, mAPI 450 mg/g

## CCCC1O[C@@H]2C[C@H]3[C@@H]4CCC5=CC(=O)C=C[C@]5(C)[C@H]4[C@@H](O)C[C@]3(C)[C@]2(C(=O)CO)O1 (stereo partly drawn) [Bude, budesonide]
[1]; [4]
  Grade (SEM, visual inspection): 5
[1]; [5]
  Grade (SEM, visual inspection): 5
[1]; [6]
  Grade (SEM, visual inspection): 5
[1]; [7]
  Grade (SEM, visual inspection): 5
[1]; [8]
  Grade (SEM, visual inspection): 5
[1]; [9]
  Grade (SEM, visual inspection): 5
[1]; [10]
  Grade (SEM, visual inspection): 5
[1]; [11]
  Grade (SEM, visual inspection): 5
[1]; [12]
  Grade (SEM, visual inspection): 5
[1]; [13]
  Grade (SEM, visual inspection): 5
[1]; [14]
  Grade (SEM, visual inspection): 3
[1]; [15]
  Grade (SEM, visual inspection): 3
[1]; [16]
  Grade (SEM, visual inspection): 3
[1]; [17]
  Grade (SEM, visual inspection): 4
[1]; [18]
  Grade (SEM, visual inspection): 3
[1]; [19]
  Grade (SEM, visual inspection): 4
[1]; [20]
  Grade (SEM, visual inspection): 2
[1]; [21]
  Grade (SEM, visual inspection): 4
[1]; [22]
  Grade (SEM, visual inspection): 2
[1]; [23]
  Grade (SEM, visual inspection): 5
[1]; [24]
  Grade (SEM, visual inspection): 5
[1]; [25]
  Grade (SEM, visual inspection): 5
[1]; [26]
  Grade (SEM, visual inspection): 5
[1]; [27]
  Grade (SEM, visual inspection): 5
[1]; [28]
  Grade (SEM, visual inspection): 5
[1]; [29]
  Grade (SEM, visual inspection): 1
[1]; [30]
  Grade (SEM, visual inspection): 1
[1]; [31]
  Grade (SEM, visual inspection): 1
[2]; materials prepared according to the disclosure, up to T30, crystallinity confirmed by XRD
  Stability of nanocrystalline material over the stability study: stable over the whole stability study
[3]; [4]
  Polymorph: bulk
[3]; [5]
  Polymorph: bulk
[3]; [6]
  Polymorph: bulk
[3]; [7]
  Polymorph: bulk
[3]; [8]
  Polymorph: bulk
[3]; [9]
  Polymorph: bulk
[3]; [10]
  Polymorph: bulk
[3]; [11]
  Polymorph: bulk
[3]; [12]
  Polymorph: bulk
[3]; [13]
  Polymorph: bulk
[3]; [14]
  Polymorph: bulk
[3]; [15]
  Polymorph: bulk
[3]; [16]
  Polymorph: bulk
[3]; [17]
  Polymorph: bulk
[3]; [18]
  Polymorph: bulk
[3]; [19]
  Polymorph: bulk
[3]; [20]
  Polymorph: bulk
[3]; [21]
  Polymorph: bulk
[3]; [22]
  Polymorph: bulk
[3]; [23]
  Polymorph: bulk
[3]; [24]
  Polymorph: bulk
[3]; [25]
  Polymorph: bulk
[3]; [26]
  Polymorph: bulk
[3]; [27]
  Polymorph: bulk
[3]; [28]
  Polymorph: bulk
[3]; [29]
  Polymorph: bulk
[3]; [30]
  Polymorph: buik
[3]; [31]
  Polymorph: bulk

## Cc1cc(Nc2ncc(Cl)c(Nc3ccccc3S(=O)(=O)C(C)C)n2)c(OC(C)C)cc1C1CCNCC1 [Cere, ceritinib]
[1]; [32]
  Grade (SEM, visual inspection): 5
[1]; [29]
  Grade (SEM, visual inspection): 5
[1]; [33]
  Grade (SEM, visual inspection): 5
[1]; [30]
  Grade (SEM, visual inspection): 5
[1]; [34]
  Grade (SEM, visual inspection): 5
[1]; [31]
  Grade (SEM, visual inspection): 5
[1]; [35]
  Grade (SEM, visual inspection): 3
[1]; [36]
  Grade (SEM, visual inspection): 3
[1]; [37]
  Grade (SEM, visual inspection): 3
[1]; [38]
  Grade (SEM, visual inspection): 5
[1]; [39]
  Grade (SEM, visual inspection): 5
[1]; [40]
  Grade (SEM, visual inspection): 5
[1]; [41]
  Grade (SEM, visual inspection): 5
[1]; [42]
  Grade (SEM, visual inspection): 5
[1]; [43]
  Grade (SEM, visual inspection): 5
[1]; [44]
  Grade (SEM, visual inspection): 5
[2]; nanosized ceritinib composition, fresh vs stored at room temperature for one month
  Stability of composition by SEM: good stability
[3]; [7]
  Polymorph: amorphous
[3]; [17]
  Polymorph: amorphous
[3]; [19]
  Polymorph: amorphous
[3]; [20]
  Polymorph: amorphous
[3]; [21]
  Polymorph: amorphous
[3]; PVPVA 10 wt.-%, SLS 0.2 wt.-%, mAPI 25 mg/g
  Polymorph: amorphous
[3]; [32]
  Polymorph: Form 1
[3]; [29]
  Polymorph: Form 1
[3]; [33]
  Polymorph: Form 1
[3]; [30]
  Polymorph: Form 1
[3]; [34]
  Polymorph: Form 1
[3]; [31]
  Polymorph: Form 1
[3]; [35]
  Polymorph: Form 1
[3]; [36]
  Polymorph: Form 1
[3]; [37]
  Polymorph: Form 1
[3]; [38]
  Polymorph: Form 1
[3]; [39]
  Polymorph: Form 1
[3]; [40]
  Polymorph: Form 1
[3]; [41]
  Polymorph: Form 1
[3]; [42]
  Polymorph: Form 1
[3]; [43]
  Polymorph: Form 1
[3]; [44]
  Polymorph: Form 1
